Where a SMILES comes first, the peptide text is derived from it. The star is where a group is joined. X1 = CCCCCCCCCCCCCCNC(=O)OC[C@H](C*)OC(=O)NCCCCCCCCCCCCCC; Palmitoyl = CCCCCCCCCCCCCCCC(=O)*
Columns and labels:
OT-II CD4^+ T cells = test: OT-II CD4+ T cell activation in vivo; set-up: species or system mice; conditions: OVA 100 µg per mouse s.c. with 2 nmol per mouse, 3 days; vs Pam3
Protocol: Carboxyfluorescein diacetate succinimidyl ester-stained OT-II CD4^+ T cells (2 × 10^6 cells per mouse) were transferred into mice 1 day prior immunization. Then the recipients were subcutaneously (s.c.) injected with OVA alone (100 µg per mouse), or OVA mixed with SUP3 (2 nmol per mouse) or Pam3 (2 nmol per mouse) at groin. Three days after immunization, OT-II CD4^+ T cells from inguinal lymph nodes were analyzed by flow cytometry.
(§1) Figure 5 SUP3 enhanced antigen presentation ability of CD11b^+ conventional dendritic cells (cDCs) and production of antibodies against thymus-dependent (TD) antigens. […] Three days after immunization, division of OT-II CD4^+ T cells from inguinal lymph nodes were analyzed by flow cytometry (B). Absolute numbers of proliferated OT-II CD4^+ T cells were calculated in (C). […] Cells were then thoroughly washed and cocultured with CFSE-stained OT-II CD4^+ T cells for 4 days and analyzed by flow cytometry. (D) The division of OT-II cells was measured by reduced level of CFSE-labeling. (E) Absolute numbers of proliferated T cells from (D) were calculated. (F) SUP3 (2 nmol per mouse), Pam3 (2 nmol per mouse), or PBS were i.v. injected into mice for 1 h, and splenic CD11b^+ cDCs were enriched and analyzed for CD86 expression by flow cytometry. […] The cytokines from supernatant were determined by ELISA (*p < 0.05, **p < 0.01). […]

splenic CD11b^+ cDCs = test: CD86 expression on splenic CD11b+ cDCs after i.v. administration; assay type: in vivo, mice; conditions: 2 nmol per mouse i.v., 1 h
Protocol: as §1, with “antigens. (A) Mice were immunized by TD antigen nitrophenyl-keyhole limpet hemocyanin (NP-KLH) (5 µg per mouse) with or without SUP3 (2 nmol per mouse), Pam3 (2 nmol per mouse), or alum (3 µg per mouse) as adjuvants, respectively. Serum IgM (nitrophenyl 30mer-captured, NP30-captured), total IgG (NP30-captured), and high affinity IgG (nitrophenyl 8mer-captured, NP8-captured) specific to NP at indicated time points were examined by ELISA.” for “antigens.”

splenic B cells = test: Total IgM production by B cells in vitro; assay type: cell-based, mice; conditions: 200 nM, 3 or 5 days, ELISA; vs Pam3
Excerpt: Splenic DCs were purified as described previously ([37]). CD8^+ cDCs expanded by B16-Flt3L inoculation were enriched, and then CD8^+ cDCs were positively sorted by MACS technology (Miltenyi Biotec). Splenic B cells were purified through negative selection by Streptavidin-MicroBeads (Miltenyi Biotec 130-048-102) combined with different antibodies cocktail to exclude non-B cells. The antibodies cocktail was composed of biotinylated antibodies against CD4 (T cells and DCs) (eBioscience, clone GK1.5), CD8 (T cells and DCs) (eBioscience, clone 53-6.7), CD43 (T cells, monocytes, granulocytes) (eBioscience, clone eBioR2/60), and Ter119 (erythrocytes) (eBioscience, clone TER119). B cells were further purified through MACS LS column (Miltenyi Biotec 130-042-401).
Splenic DCs (5 × 10^5 cells/mL) were stimulated by Pam3 (200 nM), SUP3 (200 nM), or CpG ODN 1668 (20 nM; Adipogen IAX-200-001) in the GM-CSF (20 ng/mL) supplemented medium for indicated periods. […] Cytokines (IL-6, eBioscience 88-7064; TNFα, eBioscience 88-7324; IL-12p40, BioLegend 431604), chemokine (MIP1α, R&D Systems DY450-05), and total IgM (eBioscience, 88-50470) were quantified by ELISA kits following the instructions of manufacturers.
Figure 7 SUP3 promoted stronger B cell activation in vitro. […] (B) Supernatants were harvested 3 or 5 days post-stimulation, and total IgM in the supernatant was determined by ELISA. […]

Molecule: CCCCCCCCCCCCCCCC(=O)N[C@@H](CSC[C@@H](COC(=O)NCCCCCCCCCCCCCC)OC(=O)NCCCCCCCCCCCCCC)C(=O)NCC(=O)N[C@@H](CCCCN)C(=O)N[C@@H](CCCCN)C(=O)N[C@@H](CCCCN)C(=O)O [SUP3, (2S,5S,8S,14R,18R)-2,5,8-tris(4-aminobutyl)-4,7,10,13,21-pentaoxo-14-palmitamido-18-((tetradecylcarbamoyl)oxy)-20-oxa-16-thia-3,6,9,12,22-pentaazahexatriacontan-1-oic acid] (Palmitoyl-C(X1)GKKK-OH)
- proliferation of OT-II CD4+ T cells in draining lymph nodes (OT-II CD4^+ T cells): more proliferation of OT-II CD4^+ T cells than that with Pam3
- CD86 on splenic CD11b+ cDC in vivo (splenic CD11b^+ cDCs): CD86 upregulation
- antigen-independent production of IgM by B cells (splenic B cells): more

Molecule: Pam3CSK4 [reference compound]
- CD86 on splenic CD11b+ cDC in vivo (splenic CD11b^+ cDCs): CD86 upregulation

Reference: paper PMC5318439, “The Novel Toll-Like Receptor 2 Agonist SUP3 Enhances Antigen Presentation and T Cell Activation by Dendritic Cells” (Frontiers in Immunology, 2017)
